From patent publication EP0827486B1, “STABILIZED ALKALI OR ALKALINE EARTH METAL HYPOBROMITE AND PROCESS FOR ITS PRODUCTION” (NALCO CHEMICAL COMPANY, priority 1996, dated 1997)

Experiments:
[1] = Storage stability: loss of available halogen; type: physicochemical
Description: Sodium hypochlorite solution was diluted in demand-free water. This diluted solution was titrated by the DPD-FAS method. The available chlorine level present in the original solution was determined to be 15 percent. 42.4 grams of the neat NaOCl solution were added to 20.5 grams of a 45 percent NaBr solution. This reaction forms unstabilized NaOBr. The stabilization solution was formulated with 9.6 grams of sulfamic acid, 14 grams of water, and 13.2 grams of 50 percent sodium hydroxide. The stabilization solution is then added with stirring to the NaOBr. The order of addition is critical in this process which differs from the Goodenough et al. reference. For instance, if the stabilizer was added to NaOCl prior to NaBr introduction, the bromide would not be oxidized to hypobromite. […] The stabilization procedure described here improved on the prior art as the decline of active ingredient was only 1 percent after 84 days (see Table I above). An unstabilized NaOBr solution prepared in an similar process by replacing sulfamic acid with distilled water lost 94 percent available halogen during the same period.

[2] = Excerpt: AOX is a generic class of compounds which includes all organic molecules containing halogen. Limits for AOX discharge from cooling water systems have already been established in some European countries. To simulate AOX formation during stabilized and unstabilized sodium hypobromite action in cooling water, a mixed bacterial culture typically found in cooling water was cultivated in L-broth overnight and the cells harvested by centrifugation. The cell pellet was washed with synthetic cooling water (90 ppm calcium, 50 ppm magnesium, 110 ppm "M" alkalinity, pH 8.0 -8.2) twice to remove the remaining organic medium. Cells were then resuspended into an equal volume of cooling water. A capped dark bottle served as the reactor. Synthetic cooling water was added to the bottle followed by the washed bacterial stock yielding approximately 10^7 cells/ml. Stabilized NaOBr or unstabilized NaOBr was dosed into this bacterial suspension at a final concentration of 1, 2, 3, or 4 ppm total halogen (as chlorine). Headspace in the bottle was minimized to avoid the evaporative loss of halogenated organics and the solution stirred for 24 hours to simulate a typical cooling system. Immediately before AOX analysis, the sample was acidified to pH 2.0 with concentrated nitric acid. A Mitsubishi TOX-10 Analyzer was used according to US EPA Method 9020 to measure the AOX concentration in the samples. […]
[3] = test system: Pseudomonas aeruginosa; assay: Antibacterial activity of stored hypohalite solutions in cooling water; type: cell-based; conditions: volume initially required for one ppm free halogen
Description: Freshly prepared solutions of stabilized and unstabilized sodium hypobromite were diluted then added to cooling water in order to achieve a one ppm free halogen residual (as chlorine). Sodium hypochlorite was stabilized in the same fashion as described for NaOBr in Example One with the exception that NaBr was directly replaced with distilled water. Stabilized and unstabilized sodium hypochlorite were diluted then added to cooling water at a final concentration of one ppm free halogen residual (as chlorine). The volumes of all solutions needed to achieve a one ppm free halogen residual (as chlorine) was recorded. Following 6 and 21 days of dark storage, identical dilutions of stabilized and unstabilized sodium hypohalite solutions were prepared and the volume originally required for a one ppm free halogen residual (as chlorine) was added to cooling water containing approximately 10^6 Pseudomonas aeruginosa cells / mL. Aliquots were extracted at 10 and 30 minutes into cooling water dilution blanks containing a halogen neutralizer (0.05 percent Na2S2O3) then enumerated on tryptone glucose extract agar. Stabilized NaOBr retained its antibacterial activity after storage while the unstabilized form lost its efficacy against Pseudomonas aeruginosa (see Table III below). The results were even more dramatic as the storage period increased. This effect was likely due to the disproportionation of the unstable hypobromite ion into the non-biocidal species bromide and bromate. […]

[4] = Bromate formation in stored solutions (ion chromatography); type: physicochemical; conditions: STORED FOR EIGHT MONTHS in the dark at room temperature; pH 14
Description: Hypohalite ions are known to disproportionate into halate and halide under alkaline conditions. Halate ions are undesirable degradants being suspect carcinogens and are under consideration for governmental regulation. The reaction of NaBr with NaOCI can yield significant amounts of bromate in elevated pH environments. […] Stabilized and unstabilized sodium hypobromite solutions were prepared as described in Example One. These solutions were stored in the dark at room temperature during the course of the study. Eight month old samples of stabilized and unstabilized NaOBr, both maintained at pH 14, a condition suitable for bromate formation, were assayed for bromate. A Dionex 4000 series gradient ion chromatography system equipped with AG9-SC/AS9-SC columns and a conductivity detector was used to measure the bromate concentration in the samples. The chromatograph was operated according to a method currently under investigation by the EPA for the analysis of bromate in ozonated drinking water. Purified water from an Interlake Water Systems deionization system was used for the preparation of all reagents and standard solutions to prevent contamination.

[5] = Bromate analysis of cooling water dosed with dilute solutions; type: physicochemical; conditions: cooling water (pH 8.3); total available halogen 1, 2, 3, and 4 ppm (as Cl2)
Description: As noted above, the pH of these solutions was high which favors bromate formation. However, NaOCl, which contains significant amounts of NaOH, is typically diluted with system water prior to the introduction of the bromide species in most industrial applications. The pH of this diluted system would be lower than the neat NaOCI / NaBr formulation described above theoretically minimizing bromate formation. The available chlorine in a NaOCI sample diluted (1:100) with distilled water was titrated by the DPD-FAS method. A solution of 45 percent sodium bromide was added to the dilute NaOCI at a molar ratio of 1 Cl2 : 1 Br^- forming NaOBr. This reaction proceeded for thirty minutes. Then, appropriate volumes of this dilute NaOBr solution were added to cooling water (pH 8.3) giving total available halogen levels of 1, 2, 3, and 4 ppm (as Cl2) as determined by the DPD-FAS method. Similarly, a dilution of stabilized sodium hypobromite (1:100) was made in distilled water. Dilute stabilized NaOBr was added to cooling water (pH 8.3) giving total available halogen levels of 1, 2, 3, and 4 ppm (as Cl2) as determined by the DPD-FAS method. Bromate analysis then proceeded in the manner described above. Bromate was not detected in any of the cooling water samples dosed with either stabilized or unstabilized dilute NaOBr at typical use concentrations.

[6] = Volatility: halogen vapors from concentrated solutions in a beaker; type: physicochemical; conditions: concentrated solution in a beaker
Description: Concentrated solutions of either NaOCI, NaOBr, or stabilized NaOBr were added to a beaker. […] No odors were noticed from the stabilized NaOBr. This is an improvement over existing products by minimizing halogen odors in product storage areas.

[7] = 6 DAYS OF STORAGE, CONTACT TIME 10 MINUTES
[8] = 6 DAYS OF STORAGE, CONTACT TIME 30 MINUTES
[9] = 21 DAYS OF STORAGE, CONTACT TIME 10 MINUTES
[10] = 21 DAYS OF STORAGE, CONTACT TIME 30 MINUTES

Compound	% LOSS OF AVAILABLE HALOGEN ([1]; After 14 days)	% LOSS OF AVAILABLE HALOGEN ([1]; After 21 days)	% LOSS OF AVAILABLE HALOGEN ([1]; After 34 days)	% LOSS OF AVAILABLE HALOGEN ([1]; After 84 days)	% LOSS OF AVAILABLE HALOGEN ([1]; After 84 days, listed as unstabilized NaOBr)	linear-fit equation AOX (ppb) = factor X Dose (ppm) [2]	% BACTERIA KILLED [3, 7]	% BACTERIA KILLED [3, 8]	% BACTERIA KILLED [3, 9]	% BACTERIA KILLED [3, 10]	PERCENT BROMATE [4]	Bromate [5]	Halogen vapors / odors [6]
[Na+].[O-]Br [Unstabilized Sodium Hypobromite, sodium hypobromite]	74%	79%	84%	93%	94%	53.9	99.8%	99.7%	0.4%	6.1%	2.700%	not detected	Halogen vapors were detected
[Na+].[O-]Cl [unstabilized NaOCl, sodium hypochlorite]	–	–	–	–	–	–	100%	100%	100%	100%	–	–	Halogen vapors were detected
